The record followed here is ChEMBL document CHEMBL3779807, “Synthesis and structure-activity relationship of α-keto amides as enterovirus 71 3C protease inhibitors” (Bioorg Med Chem Lett, 2016).

SMILES strings stand for the structures.

Series [1] is described as follows: Cytotoxicity against human RD cells assessed viable cells after 24 hrs by WST-1 assay. Type of series: cell-based. For orientation: Tetrazolium assays rely on reduction of a dye to a coloured formazan, in cell work by metabolically active cells.
In series [2] the test system is Enterovirus A71. Put plainly: Antiviral activity against EV71 pseudotype virus infected in RD cells after 24 hrs by Bright-Glo luciferase assay. The format is functional, organism-based. The settings on record: Enterovirus A.
Series [3] in a line: Inhibition of EV71 3C protease using NMA-IEALFQGPPK(DNP)FR as substrate preincubated for 30 mins followed by addition of substrate measured after 2 hrs by FRET assay. Details: species or system Enterovirus A71.

In the case of `O=C(/C=C/c1ccccc1)NC(Cc1ccccc1)C(=O)NC(CC1CCCNC1=O)C(=O)C(=O)Nc1ccc([N+](=O)[O-])cc1` (single isomer, unassigned), in series [1], the CC50 (as a rule, the concentration at which the toxic effect on the cells reaches its halfway point) at 24 h was greater than 100 µM. Also, the EC50 – broadly, the concentration needed to bring the measured effect to its halfway point – in series [2] was greater than 20 µM. Besides, the IC50 (usually the concentration that gives 50% inhibition) in series [3] is greater than 20 µM.
For `CC(C)(C)OC(=O)N[C@@H](Cc1ccc(F)cc1)C(=O)N[C@@H](C[C@@H]1CCCNC1=O)C(=O)C(=O)NC1CC1`, the CC50 at 24 h in series [1] was greater than 100 µM. This molecule showed an EC50 in series [2] of 1.68 µM. In series [3], half-maximal inhibition (IC50) required 1.78 µM.
Turning to `O=C(/C=C/c1ccccc1)N[C@@H](Cc1ccccc1)C(=O)N[C@@H](C[C@@H]1CCNC1=O)C(=O)C(=O)Nc1ccccc1`, the CC50 at 24 h in series [1] was greater than 100 µM. In series [2], the EC50 was greater than 20 µM. For the same molecule, the half-inhibitory concentration (IC50) in series [3] is greater than 20 µM.
For `CNC(=O)C(=O)[C@H](C[C@@H]1CCCNC1=O)NC(=O)[C@H](Cc1ccccc1)NC(=O)/C=C/c1ccccc1`, the CC50 at 24 h in series [1] was greater than 100 µM. In addition, the half-maximal effective concentration (EC50) in series [2] came to 9.59 µM. Also, in series [3], the IC50 stood at 4.08 µM.
Consider `O=C(/C=C/c1ccccc1)N[C@@H](Cc1ccccc1)C(=O)N[C@@H](C[C@@H]1CCCNC1=O)C(=O)C(=O)NCc1ccco1`, for which, in series [1], the cytotoxic concentration (CC50) at 24 h was greater than 100 µM. In series [2], the midpoint of the response, the EC50, lay at 4.5 µM. The IC50 in series [3] is 6.3 µM.
The like results for `CC(C)NC(=O)C(=O)[C@H](C[C@@H]1CCNC1=O)NC(=O)[C@H](Cc1ccccc1)NC(=O)/C=C/c1ccccc1` were, in that order, greater than 100 µM, 6.45 µM and 8.75 µM.
The like results for `O=C(/C=C/c1ccccc1)N[C@@H](Cc1ccc(F)cc1)C(=O)N[C@@H](C[C@@H]1CCCNC1=O)C(=O)C(=O)NC1CC1` were, in that order, greater than 100 µM, 1.55 µM and 1.52 µM.
The molecule `CCCCCCCCCCCCNC(=O)C(=O)[C@H](C[C@@H]1CCCNC1=O)NC(=O)[C@H](Cc1ccccc1)NC(=O)/C=C/c1ccccc1` registered a CC50 at 24 h in series [1] greater than 100 µM. Also, the EC50 in series [2] was greater than 20 µM. In series [3], this molecule yielded an IC50 greater than 20 µM.
`O=C(/C=C/c1ccccc1)N[C@@H](Cc1ccccc1)C(=O)N[C@@H](C[C@@H]1CCCNC1=O)C(=O)C(=O)NC1CC1`: the CC50 at 24 h in series [1] was greater than 100 µM. For the same molecule, a half-maximal response in series [2] (EC50) required 3.57 µM. This molecule also gave an IC50 in series [3] of 3.32 µM.
In series [1], `CCCCNC(=O)C(=O)[C@H](C[C@@H]1CCNC1=O)NC(=O)[C@H](Cc1ccccc1)NC(=O)/C=C/c1ccccc1` showed a CC50 at 24 h greater than 100 µM. Moreover, it took 15.5 µM to reach a half-maximal effect in series [2] (EC50). Moreover, the IC50 in series [3] stood at 17.6 µM.
The like results for `O=C(/C=C/c1ccccc1)N[C@@H](Cc1ccccc1)C(=O)N[C@@H](C[C@@H]1CCCNC1=O)C(=O)C(=O)Nc1ccccc1` were, in that order, greater than 100 µM, greater than 20 µM and greater than 20 µM.
The like results for `O=C(/C=C/c1ccccc1)NC(Cc1ccccc1)C(=O)NC(CC1CCNC1=O)C(=O)C(=O)NCc1ccccc1` (single isomer, unassigned) were, in that order, greater than 100 µM, greater than 20 µM and greater than 20 µM.
Taken in the same sequence, the figures for `O=C(/C=C/c1ccccc1)N[C@@H](Cc1ccccc1)C(=O)N[C@@H](C[C@@H]1CCCNC1=O)C(=O)C(=O)NCc1ccccc1` were greater than 100 µM, 5.42 µM and 7.83 µM.
Take `CCCCCNC(=O)C(=O)[C@H](C[C@@H]1CCCNC1=O)NC(=O)[C@H](Cc1ccccc1)NC(=O)/C=C/c1ccccc1`: the CC50 at 24 h in series [1] is greater than 100 µM. Further, the EC50 in series [2] is greater than 20 µM. In series [3], this molecule displayed an IC50 greater than 20 µM.
In turn, `CCCNC(=O)C(=O)[C@H](C[C@@H]1CCCNC1=O)NC(=O)[C@H](Cc1ccc(F)cc1)NC(=O)/C=C/c1ccccc1` came in with a CC50 at 24 h in series [1] greater than 100 µM. In series [2], this molecule yielded an EC50 of 1.08 µM. Further, the IC50 in series [3] is 1.88 µM.
`CC(C)CNC(=O)C(=O)[C@H](C[C@@H]1CCCNC1=O)NC(=O)[C@H](Cc1ccccc1)NC(=O)/C=C/c1ccccc1` had a CC50 at 24 h in series [1] greater than 100 µM. The molecule further registered an EC50 in series [2] of 11 µM. Moreover, in series [3], the midpoint of inhibition, the IC50, lay at 5.07 µM.
Taken in the same sequence, the figures for `CCCCNC(=O)C(=O)[C@H](C[C@@H]1CCCNC1=O)NC(=O)[C@H](Cc1ccccc1)NC(=O)/C=C/c1ccccc1` were greater than 100 µM, 11.6 µM and 8.21 µM.
`Cc1ccc(NC(=O)C(=O)[C@H](C[C@@H]2CCCNC2=O)NC(=O)[C@H](Cc2ccccc2)NC(=O)/C=C/c2ccccc2)cc1` came in with a CC50 at 24 h in series [1] greater than 100 µM. The molecule further yielded an EC50 in series [2] greater than 20 µM. In series [3], this molecule yielded an IC50 greater than 20 µM.
With `CCCNC(=O)C(=O)[C@H](C[C@@H]1CCCNC1=O)NC(=O)[C@H](Cc1ccccc1)NC(=O)/C=C/c1ccccc1`, the CC50 at 24 h in series [1] is greater than 100 µM. This molecule also had a 50% effective concentration (EC50) in series [2] of 4.59 µM. Moreover, inhibition in series [3] was half-maximal at 6.22 µM (IC50).
The like results for `CC(C)NC(=O)C(=O)[C@H](C[C@@H]1CCCNC1=O)NC(=O)[C@H](Cc1ccc(F)cc1)NC(=O)/C=C/c1ccccc1` were, in that order, greater than 100 µM, 1.12 µM and 1.32 µM.
As to `O=C(/C=C/c1ccccc1)N[C@@H](Cc1ccccc1)C(=O)N[C@@H](C[C@@H]1CCCNC1=O)C(=O)C(=O)NC1CCCCC1`, in series [1], the CC50 at 24 h was greater than 100 µM. Further, the EC50 in series [2] worked out at 2.63 µM. Further, the IC50 in series [3] was determined as 4.86 µM.
On to `CC(C)NC(=O)C(=O)[C@H](C[C@@H]1CCCNC1=O)NC(=O)[C@H](Cc1ccccc1)NC(=O)/C=C/c1ccccc1`, for which the CC50 at 24 h in series [1] is greater than 100 µM. In series [2], the EC50 is 1.66 µM. Further, the IC50 in series [3] is 1.34 µM.
Taken in the same sequence, the figures for `CC(C)(C)NC(=O)C(=O)[C@H](C[C@@H]1CCCNC1=O)NC(=O)[C@H](Cc1ccccc1)NC(=O)/C=C/c1ccccc1` were greater than 100 µM, greater than 20 µM and greater than 20 µM.
In turn, `CC(C)NC(=O)C(=O)[C@H](CC1CCCNC1=O)NC(=O)[C@H](Cc1ccc(F)cc1)NC(=O)OCc1ccccc1` (single isomer, unassigned) registered a CC50 at 24 h in series [1] greater than 100 µM. Further, the EC50 in series [2] came out at 1.32 µM. In series [3], the midpoint of inhibition, the IC50, lay at 1.42 µM.
Taken in the same sequence, the figures for `O=C(/C=C/c1ccccc1)N[C@@H](Cc1ccccc1)C(=O)N[C@@H](C[C@@H]1CCNC1=O)C(=O)C(=O)NC1CCCCC1` were greater than 100 µM, 8.12 µM and 12.7 µM.
The like results for `O=C(/C=C/c1ccccc1)N[C@@H](Cc1ccc(F)cc1)C(=O)N[C@@H](C[C@@H]1CCCNC1=O)C(=O)C(=O)NC1CCCCC1` were, in that order, greater than 100 µM, 2.78 µM and 3.71 µM.
The like results for `CCCCCCNC(=O)C(=O)[C@H](C[C@@H]1CCCNC1=O)NC(=O)[C@H](Cc1ccccc1)NC(=O)/C=C/c1ccccc1` were, in that order, greater than 100 µM, greater than 20 µM and greater than 20 µM.
